In patent US10450295B2, “Method of using an indolinone molecule and derivatives for inhibiting liver fibrosis and hepatitis” (Acclaim BioMed USA LLC, priority 2013, dated 2019):
“Also recorded” adds a separate entry of the source.

How the values were obtained:
[1] = test system: Human Hepatic Stellate cells (LX-2 cell line); experiment: MTT analysis of HSC proliferation; format: cell-based; details: serial dilutions, 48 hours
Method: Human Hepatic Stellate cells (LX-2 cell line) (HSCs) were obtained from the Key Lab of Regenerative Medicine, Jinan University, Guangzhou, China, which were maintained in Dulbecco's Modified Eagle Medium (DMEM)+10% fetal calf serum and penicillin-streptomycin (100 unit/ml and 0.1 mg/ml, respectively), in 5% CO2 at 37° C. inside a humidified cell incubator. The culture medium was changed every three days. To test the effects of small molecule Hesperadin on the mouse and human HSCs, the cultures were treated with 0.625 μM of Hesperadin for 48 hrs. The cultures were then fixed in ice cold 70% ethanol and incubated in phosphate buffered saline with RNase (0.25 mg/ml), Propidium iodide dye (40 μg/ml) and 0.1% Triton X for an hour at room temperature. For cell cycle analysis, the Propidium iodide stained cells were examined using a flow cytometer (“BD LSRFortessa Cell Analyzer”). The proliferation of HSCs was also evaluated by the MTT staining assay with 3-(4,5-Dimethylthiazol-2-yl)-2,5-diphenyltetrazolium bromide). HSCs were plated at 1×10^4 cells/ml and culture overnight. Hesperadin (in serial dilutions) was then added into the culture medium for 48 hours. This was followed by addition of MTT (250 μg/ml) for a further 4 hours. The medium was eluted and the formazan crystal was dissolved in 100 μL of DMSO. The absorbance (at 570 nm) was measured using a BIORAD 3550 Microplate Reader. […]

collagen type IV = experiment: Immunofluorescent staining of HSC cultures, collagen type IV; format: cell-based, human; details: 0.625 μM, 24-48 hours
Method: Human Hepatic Stellate cells (LX-2 cell line) (HSCs) were obtained from the Key Lab of Regenerative Medicine, Jinan University, Guangzhou, China, which were maintained in Dulbecco's Modified Eagle Medium (DMEM)+10% fetal calf serum and penicillin-streptomycin (100 unit/ml and 0.1 mg/ml, respectively), in 5% CO2 at 37° C. inside a humidified cell incubator. The culture medium was changed every three days. To test the effects of small molecule Hesperadin on the mouse and human HSCs, the cultures were treated with 0.625 μM of Hesperadin for 48 hrs. The cultures were then fixed in ice cold 70% ethanol and incubated in phosphate buffered saline with RNase (0.25 mg/ml), Propidium iodide dye (40 μg/ml) and 0.1% Triton X for an hour at room temperature. For cell cycle analysis, the Propidium iodide stained cells were examined using a flow cytometer (“BD LSRFortessa Cell Analyzer”). The proliferation of HSCs was also evaluated by the MTT staining assay with 3-(4,5-Dimethylthiazol-2-yl)-2,5-diphenyltetrazolium bromide). […] The absorbance (at 570 nm) was measured using a BIORAD 3550 Microplate Reader. […] After washing, the sections were viewed and recorded using a FluoView FV1000 Confocal microscope and/or a Nikon i80 microscope respectively to identify the presence of HSC expressing collagens. The positive staining of Collagen types I, III and IV was analyzed with the Metamorph software.

## CCS(=O)(=O)Nc1ccc2c(c1)/C(=C(/Nc1ccc(CN3CCCCC3)cc1)c1ccccc1)C(=O)N2 [Hesperadin, (Z)—N-(2-oxo-3-(Phenyl(4-(piperidin-1-ylmethyl)phenylamino)methylene)indolin-5-yl)ethanesulfonamide]
[1]
  HSC proliferation (MTT, optical density): inhibited HSC proliferation in a dose dependent manner; also recorded: suppressed HSC proliferation in a dose-dependent manner
Collagen type IV
  collagen type IV expression (immunofluorescence): significantly inhibited; also recorded: inhibits the synthesis of collagen type IV
